Test results reported in US11077090B2, “Compounds and compositions and uses thereof” (Sunovion Pharmaceuticals Inc., priority 2016, dated 2021).
Where two headings read alike, the source gives them in different places.

Tested on: compound-treated mice
Experiment: Neuropharmacological assay (SmartCube): behavioral activity signature and minimal effective dose
Format: in vivo
Conditions: for minimal effective dose: Mus musculus, ip; for AD: ADHD (probability of activity signature) / AG: analgesic (probability of activity signature) / AX: anxiolytic (probability of activity signature) / CE: cognitive enhancer (probability of activity signature) / DP: anti-depressant (probability of activity signature) / MS: mood stabilizer (probability of activity signature) / PS: anti-psychotic (probability of activity signature) / SD: sedative hypnotic (probability of activity signature) / UN: uncharacterized CNS activity (probability of activity signature): i.p. 15 min before test, most efficacious dose(s)
In short: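 Video-recorded behavior is compared algorithmically against a reference-compound database, yielding class probabilities (best dose reported). Compounds given i.p. in NMP/PEG/propylene glycol 15 min pre-test at 3 doses; potency as MED, the dose (mpk, range usually 0.3–30) reaching ≥50% total activity.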

[1] = MED = dose having 50% or more total activity, read-out: Potency: minimal effective dose (MED), binned
[2] = MED = dose having 50% or more total activity, read-out: Potency: minimal effective dose (MED)

Compound | minimal effective dose [1] | AD: ADHD (probability of activity signature) | AG: analgesic (probability of activity signature) | AX: anxiolytic (probability of activity signature) | CE: cognitive enhancer (probability of activity signature) | DP: anti-depressant (probability of activity signature) | MS: mood stabilizer (probability of activity signature) | PS: anti-psychotic (probability of activity signature) | SD: sedative hypnotic (probability of activity signature) | UN: uncharacterized CNS activity (probability of activity signature) | minimal effective dose [2] | Potency: minimal effective dose (MED) (MED = dose having 50% or more total activity)
C[C@H]1OCc2ccc3c(c2[C@@H]1N)CCCC3.Cl [Example 197] | 3 to 10 mg/kg | + (LOQ ≤ + <5%) | + (LOQ ≤ + <5%) | ++ (5% ≤ ++ <25%) | + (LOQ ≤ + <5%) | + (LOQ ≤ + <5%) | + (LOQ ≤ + <5%) | + (LOQ ≤ + <5%) | + (LOQ ≤ + <5%) | ++++ (50% ≤ ++++) | – | –
Cc1ccc2c(c1Cl)C(N)COC2.Cl (stereo not drawn) [Example 45, 5-Chloro-6-methylisochroman-4-amine hydrochloride] | – | + (LOQ ≤ + <5%) | ++ (5% ≤ ++ <25%) | +++ (25% ≤ +++ <50%) | ++ (5% ≤ ++ <25%) | ++ (5% ≤ ++ <25%) | + (LOQ ≤ + <5%) | ++ (5% ≤ ++ <25%) | ++ (5% ≤ ++ <25%) | ++++ (50% ≤ ++++) | 3 to 10 mg/kg | –
CC(C)C[C@@H]1OCc2ccccc2[C@@H]1N [Example 223] | 3 to 10 mg/kg | + (LOQ ≤ + <5%) | + (LOQ ≤ + <5%) | ++ (5% ≤ ++ <25%) | + (LOQ ≤ + <5%) | ++ (5% ≤ ++ <25%) | + (LOQ ≤ + <5%) | + (LOQ ≤ + <5%) | ++ (5% ≤ ++ <25%) | +++ (25% ≤ +++ <50%) | – | –
Cl.NC1COCc2ccc(Cl)cc21 (stereo not drawn) [Example 1, 6-Chloroisochroman-4-amine hydrochloride] | – | + (LOQ ≤ + <5%) | ++ (5% ≤ ++ <25%) | ++ (5% ≤ ++ <25%) | ++ (5% ≤ ++ <25%) | + (LOQ ≤ + <5%) | + (LOQ ≤ + <5%) | ++ (5% ≤ ++ <25%) | ++ (5% ≤ ++ <25%) | ++ (5% ≤ ++ <25%) | 10 to 30 mg/kg | –
CC1(N)COCc2ccc(F)cc21.Cl (stereo not drawn) [Example 68, 6-Fluoro-4-methylisochroman-4-amine hydrochloride] | – | + (LOQ ≤ + <5%) | ++ (5% ≤ ++ <25%) | ++ (5% ≤ ++ <25%) | ++ (5% ≤ ++ <25%) | ++ (5% ≤ ++ <25%) | + (LOQ ≤ + <5%) | ++ (5% ≤ ++ <25%) | + (LOQ ≤ + <5%) | ++ (5% ≤ ++ <25%) | 10 to 30 mg/kg | –
C#CCN[C@@H]1c2ccccc2CO[C@H]1C.Cl [Example 267] | < 3 mg/kg | + (LOQ ≤ + <5%) | + (LOQ ≤ + <5%) | + (LOQ ≤ + <5%) | + (LOQ ≤ + <5%) | ++ (5% ≤ ++ <25%) | ++ (5% ≤ ++ <25%) | + (LOQ ≤ + <5%) | ++ (5% ≤ ++ <25%) | ++ (5% ≤ ++ <25%) | – | –
C[C@@H]1OCc2cc(Cl)ccc2[C@@H]1N.Cl [Example 93] | – | + (LOQ ≤ + <5%) | ++ (5% ≤ ++ <25%) | +++ (25% ≤ +++ <50%) | + (LOQ ≤ + <5%) | ++ (5% ≤ ++ <25%) | + (LOQ ≤ + <5%) | ++ (5% ≤ ++ <25%) | + (LOQ ≤ + <5%) | + (LOQ ≤ + <5%) | 10 to 30 mg/kg | –
C#CCN[C@H]1c2ccccc2CO[C@@H]1C.Cl [Example 270] | < 3 mg/kg | ++ (5% ≤ ++ <25%) | + (LOQ ≤ + <5%) | ++ (5% ≤ ++ <25%) | + (LOQ ≤ + <5%) | ++ (5% ≤ ++ <25%) | ++++ (50% ≤ ++++) | + (LOQ ≤ + <5%) | ++ (5% ≤ ++ <25%) | ++ (5% ≤ ++ <25%) | – | –
C[C@H]1OC[C@@H](N)c2cc(F)ccc21.Cl [Example 205] | 3 to 10 mg/kg | + (LOQ ≤ + <5%) | + (LOQ ≤ + <5%) | +++ (25% ≤ +++ <50%) | ++ (5% ≤ ++ <25%) | ++ (5% ≤ ++ <25%) | + (LOQ ≤ + <5%) | ++ (5% ≤ ++ <25%) | ++ (5% ≤ ++ <25%) | +++ (25% ≤ +++ <50%) | – | –
COc1cccc2c1CO[C@H](C)[C@H]2N.Cl [Example 235] | > 30 mg/kg | + (LOQ ≤ + <5%) | + (LOQ ≤ + <5%) | ++ (5% ≤ ++ <25%) | + (LOQ ≤ + <5%) | + (LOQ ≤ + <5%) | + (LOQ ≤ + <5%) | + (LOQ ≤ + <5%) | + (LOQ ≤ + <5%) | + (LOQ ≤ + <5%) | – | –
CN[C@@H]1COCc2cccc(Cl)c21 [Example 145] | – | + (LOQ ≤ + <5%) | ++ (5% ≤ ++ <25%) | ++ (5% ≤ ++ <25%) | ++ (5% ≤ ++ <25%) | + (LOQ ≤ + <5%) | + (LOQ ≤ + <5%) | + (LOQ ≤ + <5%) | + (LOQ ≤ + <5%) | +++ (25% ≤ +++ <50%) | – | C (>10 to ≤30 mpk)
C[C@@H]1OCc2c(Cl)cccc2[C@@H]1N.Cl [Example 86] | – | + (LOQ ≤ + <5%) | ++ (5% ≤ ++ <25%) | ++ (5% ≤ ++ <25%) | ++ (5% ≤ ++ <25%) | + (LOQ ≤ + <5%) | + (LOQ ≤ + <5%) | ++ (5% ≤ ++ <25%) | + (LOQ ≤ + <5%) | +++ (25% ≤ +++ <50%) | 10 to 30 mg/kg | –
Cc1ccc2c(c1C)[C@H](N)[C@H](C)OC2.Cl [Example 78] | – | + (LOQ ≤ + <5%) | ++ (5% ≤ ++ <25%) | ++ (5% ≤ ++ <25%) | ++ (5% ≤ ++ <25%) | ++ (5% ≤ ++ <25%) | + (LOQ ≤ + <5%) | +++ (25% ≤ +++ <50%) | + (LOQ ≤ + <5%) | ++++ (50% ≤ ++++) | 3 to 10 mg/kg | –
Cc1cc(C)c2c(c1)C(N)COC2.Cl (stereo not drawn) [Example 46, 6,8-Dimethylisochroman-4-amine hydrochloride] | – | + (LOQ ≤ + <5%) | ++ (5% ≤ ++ <25%) | ++ (5% ≤ ++ <25%) | ++ (5% ≤ ++ <25%) | + (LOQ ≤ + <5%) | + (LOQ ≤ + <5%) | + (LOQ ≤ + <5%) | ++ (5% ≤ ++ <25%) | ++++ (50% ≤ ++++) | < 3 mg/kg | –
COc1cccc2c1[C@H](N)[C@H](C)OC2.Cl [Example 230] | 3 to 10 mg/kg | + (LOQ ≤ + <5%) | + (LOQ ≤ + <5%) | ++ (5% ≤ ++ <25%) | ++ (5% ≤ ++ <25%) | + (LOQ ≤ + <5%) | + (LOQ ≤ + <5%) | ++ (5% ≤ ++ <25%) | + (LOQ ≤ + <5%) | ++++ (50% ≤ ++++) | – | –
